This note sets out measurements from patent US6063926A, “Substituted oximes as neurokinin antagonists” (Schering Corporation, priority 1998, dated 2000).

Read-outs that look alike come from different tables or passages of the source.

One assay addresses NK1 receptor (Homo sapiens, UniProt P25103). In words: neurokinin receptor binding assay, NK1 (Ki). An excerpt:
(§1) The in vitro and in vivo activity of the compounds of formula I can be determined by various procedures known in the art, such as a test for their ability to inhibit the activity of the NK1 agonist Substance P, an isolated hamster trachea NK2 assay, a test of the effect of NK1 antagonists on Substance P-induced airway microvascular leakage, measurement of NK2 activity in vivo in guinea pigs, measurement of bronchoconstriction due to NKA, and neurokinin receptor binding assay(s). Typical procedures are described in WO96/34857, published Nov. 7, 1996. NK3 activity is determined by following a procedure similar to that described in the literature, e.g., Molecular Pharmacol., 48 (1995), p. 711-716.
(§2) % Inhibition is the difference between the percent of maximum specific binding (MSB) and 100%. The percent of MSB is defined by the following equation, wherein "dpm" is disintegrations per minute: [formula]
(§3) Using the test procedures described above, the following 35 data (Ki) were obtained for exemplified compounds: […]

Another assay addresses T1, NK2 receptor (Homo sapiens, UniProt P21452).
T1 sequence (P21452 1-398): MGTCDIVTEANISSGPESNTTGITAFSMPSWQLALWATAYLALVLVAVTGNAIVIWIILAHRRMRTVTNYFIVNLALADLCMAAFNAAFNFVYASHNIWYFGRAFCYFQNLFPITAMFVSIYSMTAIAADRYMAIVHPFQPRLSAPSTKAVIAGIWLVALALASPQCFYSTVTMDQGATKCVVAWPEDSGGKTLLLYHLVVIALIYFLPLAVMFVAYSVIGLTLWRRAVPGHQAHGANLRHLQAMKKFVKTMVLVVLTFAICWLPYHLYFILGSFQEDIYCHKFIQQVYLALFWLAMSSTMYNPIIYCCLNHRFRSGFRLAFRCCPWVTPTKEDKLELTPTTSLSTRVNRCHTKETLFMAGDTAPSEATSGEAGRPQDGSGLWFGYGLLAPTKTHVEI
The assay can be described thus: neurokinin receptor binding assay, NK2 (Ki).
Text: as §1, §2, §3

NK1 receptor, sequence (P25103 whole entry): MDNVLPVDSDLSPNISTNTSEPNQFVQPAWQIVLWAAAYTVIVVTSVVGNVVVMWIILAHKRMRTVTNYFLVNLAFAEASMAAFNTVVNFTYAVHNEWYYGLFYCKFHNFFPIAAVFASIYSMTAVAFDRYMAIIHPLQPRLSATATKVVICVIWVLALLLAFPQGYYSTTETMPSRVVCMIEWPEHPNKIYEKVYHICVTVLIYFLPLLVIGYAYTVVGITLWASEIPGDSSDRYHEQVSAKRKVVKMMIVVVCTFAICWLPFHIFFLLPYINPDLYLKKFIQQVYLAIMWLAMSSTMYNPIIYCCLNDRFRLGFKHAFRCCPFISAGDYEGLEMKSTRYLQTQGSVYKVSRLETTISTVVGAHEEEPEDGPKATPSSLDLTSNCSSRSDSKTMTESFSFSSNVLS

Turning to `CO/N=C(\CN(C)C(=O)c1cc(C(F)(F)F)cc(C(F)(F)F)c1)C(CCN1CCC(O)(c2ccccc2)CC1)c1ccc(Cl)c(Cl)c1` (stereo not shown) [Example 11], the Ki (as a rule, a measure of affinity in units of concentration, obtained from inhibition or displacement) on NK1 receptor (compound of Example 11, amide disclosed in U.S. Pat. No. 5,696,267, read-out: Ki for the NK1 receptor (unit inferred)) stood at 3.6 nM; on NK2 receptor (compound of Example 11, amide disclosed in U.S. Pat. No. 5,696,267, read-out: Ki for the NK2 receptor (unit inferred)) it was 9.2 nM.
In the case of `CON=C(CN(C)C(=O)c1cc(Cl)cc(Cl)c1)C(CCN1CCC(N2CCCC(CC(=O)N3CC(O)C3)C2=O)CC1)c1ccc(Cl)c(Cl)c1` (stereo not shown) [Example 12E], the results for the Ki on NK1 receptor (read-out: Ki (NK1)) and on NK2 receptor (read-out: Ki (NK2)) were 0.4 nM and 0.2 nM, respectively.
For `CON=C(CN(C)C(=O)c1cc(Cl)cc(Cl)c1)C(CCN1CCC(N2CCCC(CC(=O)N3CCCC3)C2=O)CC1)c1ccc(Cl)c(Cl)c1` (stereo not shown) [Example 12F], in that order: 0.6 nM and 0.8 nM.
For `CON=C(CN(C)C(=O)c1cc(Cl)cc(Cl)c1)C(CCN1CCC(N2CCCC(CC(=O)N3CCOCC3)C2=O)CC1)c1ccc(Cl)c(Cl)c1` (stereo not shown) [Example 12K], in that order: 0.9 nM and 0.5 nM.
For `CON=C(CN(C)C(=O)c1cc(Cl)cc(Cl)c1)C(CCN1CCC(N2CCCC(CC(=O)N3CCC(O)CC3)C2=O)CC1)c1ccc(Cl)c(Cl)c1` (stereo not shown) [Example 12L], in that order: 0.5 nM and 0.9 nM.
Turning to `CON=C(CN(C)C(=O)c1cc(Cl)cc(Cl)c1)[C@H](CCN1CCC(N2CCC[C@H](CC(=O)N(C)C)C2=O)CC1)c1ccc(Cl)c(Cl)c1` [Example 13A], the results for the Ki at NK1 receptor (read-out: Ki (NK1)) and on NK2 receptor (read-out: Ki (NK2)) were 0.8 nM and 0.2 nM, respectively.
Taken in the same sequence, the figures for `CNC(=O)C[C@H]1CCCN(C2CCN(CC[C@@H](C(CN(C)C(=O)c3cc(Cl)cc(Cl)c3)=NOC)c3ccc(Cl)c(Cl)c3)CC2)C1=O` [Example 13B] were 0.9 nM and 0.3 nM.
Taken in the same sequence, the figures for `CON=C(CN(C)C(=O)c1cc(Cl)cc(Cl)c1)[C@H](CCN1CCC(N2CCC[C@H](CC(N)=O)C2=O)CC1)c1ccc(Cl)c(Cl)c1` [Example 13C] were 0.4 nM and 0.2 nM.
Turning to `CON=C(CN(C)C(=O)c1cc(Cl)cc(Cl)c1)[C@H](CCN1CCC(N2CCCCC2=O)CC1)c1ccc(Cl)c(Cl)c1` [Example 13D], the inhibitory constant (Ki) at NK1 receptor (read-out: Ki (NK1)) turned out to be 1.1 nM; on NK2 receptor (read-out: Ki (NK2)) it was 0.7 nM.
For `CON=C(CN(C)C(=O)c1cc(Cl)cc(Cl)c1)[C@H](CCN1CCC(N2CCC[C@H](CC(=O)O)C2=O)CC1)c1ccc(Cl)c(Cl)c1` [Example 13E], in that order: 0.4 nM and 0.6 nM.
For `CON=C(CN(C)C(=O)c1cc(Cl)cc(Cl)c1)[C@H](CCN1CCC(N2CCC[C@H](CC(=O)OC)C2=O)CC1)c1ccc(Cl)c(Cl)c1` [Example 13F], in that order: 0.2 nM and 0.3 nM.
Taken in the same sequence, the figures for `CON=C(CN(C)C(=O)c1cc(Cl)cc(Cl)c1)[C@H](CC[N+]1([O-])CCC(N2CCCCC2=O)CC1)c1ccc(Cl)c(Cl)c1` (stereo partly shown) [Example 13G] were 1.5 nM and 0.4 nM.
`CNC(=O)C[C@H]1CCCN(C2CC[N+]([O-])(CC[C@@H](C(CN(C)C(=O)c3cc(Cl)cc(Cl)c3)=NOC)c3ccc(Cl)c(Cl)c3)CC2)C1=O` (stereo partly shown) [Example 13H]: the Ki stood at 2.6 nM at NK1 receptor (read-out: Ki (NK1)) and 0.4 nM on NK2 receptor (read-out: Ki (NK2)).
Taken in the same sequence, the figures for `CN(C)C(=O)CC1CCCN(C2CCN(CCC(C(CN(C)C(=O)c3cc(Cl)cc(Cl)c3)=NO)c3ccc(Cl)c(Cl)c3)CC2)C1=O` (stereo not shown) [Example 14B] were 0.3 nM and 0.8 nM.
For `CN(C)C(=O)CC1CCCN(C2CCN(CCC(C(CN(C)C(=O)c3cc(Cl)cc(Cl)c3)=NOCC(N)=NO)c3ccc(Cl)c(Cl)c3)CC2)C1=O` (stereo not shown) [Example 14D], in that order: 0.3 nM and 0.2 nM.
Taken in the same sequence, the figures for `CON=C(N)CON=C(CN(C)C(=O)c1cc(Cl)cc(Cl)c1)C(CCN1CCC(N2CCCC(CC(=O)N(C)C)C2=O)CC1)c1ccc(Cl)c(Cl)c1` (stereo not shown) [Example 14E] were 0.2 nM and 0.4 nM.
Regarding `CNC(=O)CC1CCCN(C2CCN(CCC(C(CN(C)C(=O)c3cc(Cl)cc(Cl)c3)=NO)c3ccc(Cl)c(Cl)c3)CC2)C1=O` (stereo not shown) [Example 15A], the values for the Ki on NK1 receptor (read-out: Ki (NK1)) and on NK2 receptor (read-out: Ki (NK2)) were 0.2 nM and 0.7 nM, respectively.
On to `CNC(=O)CC1CCCN(C2CCN(CCC(C(CN(C)C(=O)c3cc(Cl)cc(Cl)c3)=NOCC#N)c3ccc(Cl)c(Cl)c3)CC2)C1=O` (stereo not shown) [Example 15B], for which the Ki on NK1 receptor (read-out: Ki (NK1)) is 1.7 nM; on NK2 receptor (read-out: Ki (NK2)) it was 0.8 nM.
Taken in the same sequence, the figures for `CNC(=O)CC1CCCN(C2CCN(CCC(C(CN(C)C(=O)c3cc(Cl)cc(Cl)c3)=NOCC(N)=O)c3ccc(Cl)c(Cl)c3)CC2)C1=O` (stereo not shown) [Example 15D] were 0.4 nM and 0.5 nM.
Taken in the same sequence, the figures for `CNC(=O)CON=C(CN(C)C(=O)c1cc(Cl)cc(Cl)c1)C(CCN1CCC(N2CCCC(CC(=O)NC)C2=O)CC1)c1ccc(Cl)c(Cl)c1` (stereo not shown) [Example 15E] were 0.5 nM and 1 nM.
Taken in the same sequence, the figures for `CNC(=O)CC1CCCN(C2CCN(CCC(C(CN(C)C(=O)c3cc(Cl)cc(Cl)c3)=NOCC(N)=NO)c3ccc(Cl)c(Cl)c3)CC2)C1=O` (stereo not shown) [Example 15F] were 0.4 nM and 0.8 nM.
Consider `CNC(=O)CC1CCCN(C2CCN(CCC(C(CN(C)C(=O)c3cc(Cl)cc(Cl)c3)=NOCC(=O)Nc3nncs3)c3ccc(Cl)c(Cl)c3)CC2)C1=O` (stereo not shown) [Example 15G], for which the Ki is 0.9 nM on NK1 receptor (read-out: Ki (NK1)) and 1.3 nM on NK2 receptor (read-out: Ki (NK2)).
Taken in the same sequence, the figures for `CNC(=O)CC1CCCN(C2CCN(CCC(C(CN(C)C(=O)c3cc(Cl)cc(Cl)c3)=NOCCCS(=O)(=O)O)c3ccc(Cl)c(Cl)c3)CC2)C1=O` (stereo not shown) [Example 15H] were 0.2 nM and 0.4 nM.
Taken in the same sequence, the figures for `CNC(=O)CC1CCCN(C2CCN(CCC(C(CN(C)C(=O)c3cc(Cl)cc(Cl)c3)=NOCC(=O)NCC#N)c3ccc(Cl)c(Cl)c3)CC2)C1=O` (stereo not shown) [Example 15I] were 0.8 nM and 1 nM.
With `CNC(=O)CC1CCCN(C2CCN(CCC(C(CN(C)C(=O)c3cc(Cl)cc(Cl)c3)=NOCC(=O)NCS(=O)(=O)O)c3ccc(Cl)c(Cl)c3)CC2)C1=O` (stereo not shown) [Example 15J], the Ki worked out at 0.7 nM on NK1 receptor (read-out: Ki (NK1)) and 4.3 nM at NK2 receptor (read-out: Ki (NK2)).
In the case of `CNC(=O)CC1CCCN(C2CCN(CCC(C(CN(C)C(=O)c3cc(Cl)cc(Cl)c3)=NOCF)c3ccc(Cl)c(Cl)c3)CC2)C1=O` (stereo not shown) [Example 15K], the figures for the Ki on NK1 receptor (read-out: Ki (NK1)) and on NK2 receptor (read-out: Ki (NK2)) were 0.5 nM and 0.2 nM, respectively.
Taken in the same sequence, the figures for `CCON=C(CN(C)C(=O)c1cc(Cl)cc(Cl)c1)C(CCN1CCC(N2CCCC(CC(=O)NC)C2=O)CC1)c1ccc(Cl)c(Cl)c1` (stereo not shown) [Example 15L] were 1 nM and 1.4 nM.
With `CNC(=O)CC1CCCN(C2CCN(CCC(C(CN(C)C(=O)c3cc(Cl)cc(Cl)c3)=NOCC(N)=NOC)c3ccc(Cl)c(Cl)c3)CC2)C1=O` (stereo not shown) [Example 15M], the Ki at NK1 receptor (read-out: Ki (NK1)) is 0.2 nM; on NK2 receptor (read-out: Ki (NK2)) it was 0.3 nM.
For `CN(CC(=NO)C(CCN1CCC(N2CCCC(CC(N)=O)C2=O)CC1)c1ccc(Cl)c(Cl)c1)C(=O)c1cc(Cl)cc(Cl)c1` (stereo not shown) [Example 16A], in that order: 0.2 nM and 0.7 nM.
Taken in the same sequence, the figures for `CN(CC(=NO)C(CCN1CCC(N2CCCCC2=O)CC1)c1ccc(Cl)c(Cl)c1)C(=O)c1cc(Cl)cc(Cl)c1` (stereo not shown) [Example 17A] were 0.5 nM and 3 nM.
For `CN(CC(=NOCC(N)=NO)C(CCN1CCC(N2CCCCC2=O)CC1)c1ccc(Cl)c(Cl)c1)C(=O)c1cc(Cl)cc(Cl)c1` (stereo not shown) [Example 17E], in that order: 0.7 nM and 0.7 nM.
With `CN(CC(=NOCCCS(=O)(=O)O)C(CCN1CCC(N2CCCCC2=O)CC1)c1ccc(Cl)c(Cl)c1)C(=O)c1cc(Cl)cc(Cl)c1` (stereo not shown) [Example 17K], the figures for the Ki at NK1 receptor (read-out: Ki (NK1)) and on NK2 receptor (read-out: Ki (NK2)) were 3.3 nM and 2.7 nM, respectively.
In the case of `CN(CC(=NOCF)C(CCN1CCC(N2CCCCC2=O)CC1)c1ccc(Cl)c(Cl)c1)C(=O)c1cc(Cl)cc(Cl)c1` (stereo not shown) [Example 17S], the Ki at NK1 receptor (read-out: Ki (NK1)) and at NK2 receptor (read-out: Ki (NK2)) was 0.8 nM each time.
For the compound `CON=C(CN(C)C(=O)c1cc(C)cc(C)c1)C(CCN1CCC(N2CCCCC2=O)CC1)c1ccc(Cl)c(Cl)c1` (stereo not shown) [Example 18B], the values for the inhibition constant (Ki) at NK1 receptor (read-out: Ki (NK1)) and on NK2 receptor (read-out: Ki (NK2)) were 0.8 nM and 0.4 nM, respectively.
Taken in the same sequence, the figures for `Cc1cc(C)cc(C(=O)N(C)CC(=NOCC#N)C(CCN2CCC(N3CCCCC3=O)CC2)c2ccc(Cl)c(Cl)c2)c1` (stereo not shown) [Example 18D] were 0.4 nM and 0.4 nM.
Taken in the same sequence, the figures for `Cc1cc(C)cc(C(=O)N(C)CC(=NOCC(N)=NO)C(CCN2CCC(N3CCCCC3=O)CC2)c2ccc(Cl)c(Cl)c2)c1` (stereo not shown) [Example 18E] were 0.4 nM and 0.4 nM.
For `Cc1cc(C)cc(C(=O)N(C)CC(=NOCC(=O)N2CCSCC2)C(CCN2CCC(N3CCCCC3=O)CC2)c2ccc(Cl)c(Cl)c2)c1` (stereo not shown) [Example 18J], in that order: 0.3 nM and 3.4 nM.
In the case of `CON=C(N)CON=C(CN(C)C(=O)c1cc(C)cc(C)c1)C(CCN1CCC(N2CCCCC2=O)CC1)c1ccc(Cl)c(Cl)c1` (stereo not shown) [Example 18M], the inhibitory constant (Ki) on NK1 receptor (read-out: Ki (NK1)) was 0.2 nM; at NK2 receptor (read-out: Ki (NK2)), 0.4 nM.
